Key:
[1] = test system: human PBMC-derived M2 macrophages; experiment: Reprogramming of human PBMC-derived M2 macrophages by folate-TLR7 conjugates (qPCR, ELISA); format: cell-based; conditions: increased M1 markers
Method: To evaluate the efficacy of the releasable and non-releasable conjugates, freshly isolated PBMCs were plated with monocyte attachment medium at a seeding density of 1 million cells/cm^2. This was incubated for about 2 hours at 5% CO2 and 37° C. in the incubator. Non-adherent cells were removed, and the monocytes were washed three times with warm monocyte attachment medium. The monocytes were cultured in folate deficient RPMI 1640 medium. This was differentiated into unpolarized macrophages by incubating with fresh RPMI medium containing 20 ng/mL of M-CSF supplemented with 1% penicillin streptomycin (Invitrogen, Carlsbad, Calif.) and 10% FBS.
After 3 days, the medium was replaced with fresh RPMI medium containing 20 ng/mL of M-CSF. […]
qPCR analyses were performed using the iTaq™ Universal SYBR Green SuperMix (Bio-Rad Laboratories, Inc., Hercules, Calif.; #1725121), iCycler thermocycler, and iCycler iQ 3.0 software (Bio-Rad Laboratories Inc., Hercules, Calif.) to track the expression of markers characteristic of macrophage polarization states. […] Each sample was analyzed independently in triplicate for each marker. IL-6, CXCL-10 and TNF-α protein expression in the cell culture supernatants were calculated using the commercially available ELISA kits (Biolegend, San Diego, Calif.).

[2] = test system: human PBMC-derived M2 macrophages; experiment: Surface markers during macrophage polarization (flow cytometry); format: cell-based; conditions: 48 hours
Method: Human PMBC-derived M2 macrophages were treated with different concentrations of folate-TLR7 agonists (e.g., Compound 4) for 48 hours, and macrophage cells were detached using Accutase cell detachment Solution (Biolegend, San Diego, Calif.; #423201) and gently lifted with a cell scraper. Cells were washed with PBS and nonspecific binding was blocked by incubation with Fc receptor blocking solution (Biolegend, San Diego, Calif.) at room temperature for 10 minutes. The resulting single cell suspensions were stained for M2 macrophage marker CD206, and M1 macrophage markers CD80 and CD40. All the samples were then analyzed by flow cytometry.

4T1 solid tumor = 4T1 solid tumor model in mice; format: in vivo; conditions: BalB/c mice; for polarization of the macrophages from M2 to M1 phenotype in tumor: 4T1 solid tumors, flow cytometry; for tumor size: subcutaneous 4T1, intravenous, Compound 5 10 nmol/mouse, Compound 4 different concentrations
Method: In additional in vivo studies, 6-8 week old female BalB/c mice (Charles River Laboratories International, Inc., Wilmington, Mass.) were transferred upon arrival to a folic acid-deficient diet (TD.95247, Envigo Corporation, Indianapolis, Ind.). On day 14, mice were implanted subcutaneously with 5.0×10^4 of 4T1 cells and tumors were allowed to grow until they reach ˜50 mm^3. Mice were then injected intravenously with different concentrations of 100 μl of Folate-TLR7 conjugate Compounds 4 or 10 nmol/mouse of Compound 5). Control groups received 100 μl of 3% DMSO in PBS on the same schedule.
Tumor volume was concurrently measured with calipers using the formula (a×b^2)/2 (a being the largest and b being the smallest diameter of the tumor) (see FIGS. 10A, 10B, and 14). When desired, mice were sacrificed, and derived tumor fragments were dissociated using a human tumor dissociation kit. The resulting single cell suspensions were stained for antibodies and the samples were then analyzed by flow cytometry. Percentage of CD4 and CD8 T cell populations were tested in live cells isolated from 4T1 solid tumors in groups of untreated control and Folate-TLR7 conjugate treatment groups.

4T1 metastatic tumor = 4T1 metastatic tumor model, lung metastatic colony formation (6-thioguanine assay); format: in vivo; conditions: Balb/c mice, 50 nmole/kg intravenously once/week
Method: Additional 4T1 solid tumor metastatic studies were also performed. There, lung metastatic colony formation assay was carried out following the reported procedure (Cresswell et al., Folate receptor beta designates immunosuppressive tumor-associated myeloid cells that can be reprogrammed with folate-targeted drugs, Cancer Research 2021, 81(3), 671-684). 6-8 weeks old Balb/c mice were implanted with 50,000 4T1 cells in the mammary fat pad and tumors were allowed to grow until they reached ˜50 mm^3. Mice were then injected intravenously with 100 μl of Folate-TLR7 conjugate (Compound 4) (50 nmole/kg) once/week. The control group received an equal volume of PBS on the same schedule. At the end of the treatment, metastasis in lung was evaluated in disease control and treatment group by co-culturing lung-digested cells with 6-thioguanine ([…]) in complete RPMI-1640 media for 10 days in petri plates. Metastatic colonies were visualized by fixing the plates with 5 mL of methanol followed by 5 mL deionized water wash and then stained with 0.03% methylene blue (see FIG. 15C). Total blue colonies from each plate were then counted.

[3] = test system: human peripheral blood mononuclear cells (PBMCs); experiment: IL-6 production in human PBMCs treated with TLR7 agonists (ELISA); format: cell-based; conditions: 24 hours, compared to control Compound A (TLR7-1), FIG. 2
Method: To evaluate the efficacy of TLR-7 agonists, Compounds 1 (TLR7-1A), 2 (TLR7-1B) and 3 (TLR7-1C) were treated with human peripheral blood mononuclear cells (PBMCs) for 24 hours and cytokine production was thereafter assessed. Human PBMCs were isolated from healthy donors by density gradient centrifugation following standard procedure. 18 mL of blood were diluted with 2% fetal bovine serum (FBS) in phosphate-buffered saline (PBS) (1:1 dilution) and transferred slowly into a 50 mL SepMate™ PBMC isolation tube containing 12 mL of Ficoll-Paque®. The tube was centrifuged at 1200 g for 10 minutes and PBMCs were transferred into a fresh 50 mL tube.
PBMCs were washed with 2×50 mL of 2% FBS in PBS and plated in 96 well plate at a density of 2×10^5 cells/200 μL RPMI medium. This was treated with different concentrations of TLR7 agonist for 24 hours.
Compound A (TLR7-1) was used as control. Cell culture supernatants were isolated and cytokine levels were calculated using an enzyme-linked immunosorbent assay (ELISA) kit (FIG. 2).

[4] = test system: human primary monocyte derived M2-macrophages; experiment: Cytokine induction in human primary monocyte derived M2-macrophages; format: cell-based; conditions: 48 hours; for induction of interleukin-6 (IL-6): compared to parent compound TLR7-1, FIG. 3A; for induction of C-X-C motif chemokine ligand 10 (CXCL-10): compared to parent compound TLR7-1, FIG. 3B; for polarization of M2 macrophages to M1 macrophages: shown by increased M1 markers IL-6 and CXCL10
[5] = Systemic cytokine release in healthy mice after tail vein injection; format: in vivo; conditions: healthy Balb/c mice, 10 nmol tail vein, 1 hour or 1.5 hours after treatment
From the text: Female Balb/c mice were purchased from Charles Rivers, housed in a sterile environment on a standard 12-hour light-dark cycle, and maintained on a folate-deficient diet. All animal procedures were approved by the Purdue Animal Care and Use Committee in accordance with National Institutes of Health guidelines.
Healthy mice were tail vein injected with 10 nmol Compound A (TLR7-1) or Compound 1 (TLR7-1A), and peripheral blood was collected at indicated time points after drug injection. (FIGS. 3C and 3D). The effect of drug on plasma levels of IL-6 (FIG. 3C), and tumor necrosis factor alpha (TNF-α) (FIG. 3D) was determined at 1 hour or 1.5 hours after treatment. Both Compounds A and 1 stimulated systemic cytokine release in healthy mice.

[6] = test system: mouse bone marrow-derived M2-macrophages; experiment: Macrophage polarization in mouse bone marrow-derived M2 macrophages (ELISA); format: cell-based; conditions: 48 hours
Method: Bone marrow cells were isolated from tibias and femurs of male C57BL/6 mice and were differentiated to macrophages with mouse M-CSF (20 ng/mL). The macrophages were then polarized to M2 phenotype with 20 ng/mL of […] for 48 hours. Interferon-γ (IFN-γ), interleukin-4 (IL-4), and interleukin-13 (IL-13) were obtained from Biolgend (San Diego, Calif.). Lipopolysaccharide (LPS) was purchased from Sigma-Aldrich (St. Louis, Mo.).
The resulting M2 macrophages were then incubated with varying concentrations of Resiquimod, GSK2245035, Compound 1, Compound 2, and Compound 3 for 48 hours. Supernatant was harvested and cytokines were analyzed using ELISA. (Resiquimod and GSK2245035 are known TLR7 agonists.)

SMILES | polarization of the macrophages from M2 to M1 phenotype in tumor (4T1 solid tumor) | tumor size (4T1 solid tumor) | expression of IL-6 in PBMCs [3] | induction of interleukin-6 (IL-6) [4] | induction of C-X-C motif chemokine ligand 10 (CXCL-10) [4] | polarization of M2 macrophages to M1 macrophages [4] | other results
CCCCc1nc2c(N)nc3ccccc3c2n1CC(C)(C)COCCOCCOCCOCCNC(=O)CC[C@H](NC(=O)c1ccc(NCc2cnc3nc(N)[nH]c(=O)c3n2)cc1)C(=O)O [Compound 4, (S)-1-(4-amino-2-butyl-1H-imidazo[4,5-c]quinolin-1-yl)-20-(4-(((2-amino-4-oxo-3,4-dihydropteridin-6-yl)methyl)amino)benzamido)-2,2-dimethyl-17-oxo-4,7,10,13-tetraoxa-16-azahenicosan-21-oic acid] | shifted polarization of the macrophages from M2 to M1 phenotype | reduction | – | – | – | – | polarization of M2 macrophages to M1 macrophages ([1]; 3 hours or 3+45 hours, FIGS. 11A-11D): polarized the M2 macrophages to M1 macrophages; M1 surface marker CD40 ([2]; FIG. 12A): increased; M1 surface marker CD80 ([2]; FIG. 12B): increased; polarization of M2 macrophages to M1 macrophages ([2]; FIGS. 12A and 12B): polarized the M2 macrophages to M1 macrophages; number of metastatic colonies (lung) (4T1 metastatic tumor; 6-thioguanine assay, FIG. 15B-C): significantly decreased; volume of the tumor (4T1 metastatic tumor; 4T1 in mammary fat pad, FIG. 15A): significantly decreased
CCCCc1nc2c(N)nc3ccccc3c2n1CC(C)(C)CN [Compound 2, 1-(3-amino-2,2-dimethylpropyl)-2-butyl-1H-imidazo[4,5-c]quinolin-4-amine] | – | – | increased | more efficiently | more efficiently | polarize the M2 macrophages to M1 macrophages | –
CCCCc1nc2c(N)nc3ccccc3c2n1CC(C)(C)COC(=O)OCCSSC[C@H](NC(=O)CCOCCOCCOCCNC(=O)CC[C@H](NC(=O)c1ccc(NCc2cnc3nc(N)[nH]c(=O)c3n2)cc1)C(=O)O)C(=O)O [Compound 5] | shifted polarization of the macrophages from M2 to M1 phenotype | reduction | – | – | – | – | polarization of M2 macrophages to M1 macrophages ([1]; 3+45 hours, FIG. 9): polarized the M2 macrophages to M1 macrophages
CCCCc1nc2c(N)nc3ccccc3c2n1CC(C)(C)N [Compound 3, 1-(2-amino-2-methylpropyl)-2-butyl-1H-imidazo[4,5-c]quinolin-4-amine] | – | – | increased | more efficiently | more efficiently | polarize the M2 macrophages to M1 macrophages | –
CCCCc1nc2c(N)nc3ccccc3c2n1CC(C)(C)CO [Compound 1, 3-(4-amino-2-butyl-1H-imidazo[4,5-c]quinolin-1-yl)-2,2-dimethylpropan-1-ol] | – | – | increased | more efficiently | more efficiently | polarize the M2 macrophages to M1 macrophages | systemic cytokine release (plasma IL-6, TNF-α) [5]: stimulated; M1 marker IL-6 ([6]; supernatant ELISA, FIG. 4A): increase; M1 marker TNF-α ([6]; supernatant ELISA, FIG. 4B): increase; polarization of macrophages from M2 to M1 phenotype ([6]; varying concentrations, FIGS. 4A and 4B): efficiently polarized

Source: patent US20230248835A1, “COMPOUNDS, COMPOSITIONS, AND METHODS FOR THE TREATMENT OF FIBROTIC DISEASES AND CANCER” (Purdue Research Foundation, priority 2020, published 2023)
